Each block holds one molecule with its values, some of them ahead of it. The star is where a group is joined. Dansyl = CN(C)c1cccc2c(S(=O)(=O)*)cccc12
Assays:
[1] = test system: naturally occurring PEX5 receptor; experiment: PEX5 (naturally occurring receptor) binding of orthogonal peptide (overall statement)
Description: PEX5 is a modular protein: the C-terminal domain recognizes PTS1 within a funnel-shaped pocket created by 7 α-helical tetratricopeptide repeats (TPRs)[14], while the N-terminal domain of PEX5, which is natively unstructured, is responsible for the docking, cargo delivery, and recycling functions of the receptor[10]. […] The PEX5*-PTS1* pair was discovered by assessing the binding of a range of variants of the C-terminal domain of Arabidopsis thaliana PEX5 (AtPEX5C) with a library of pentapeptides (Fig. 1a). […] PTS1* has low affinity for the naturally occurring PEX5 receptor. Following optimization, the C-terminal PEX5* sequence was combined with the N-terminal domain of PEX5 from the moss Physcomitrella patens (Phypa PEX5N) to create a fully functional PEX5* receptor (Fig. 1a). Concomitant expression of PEX5* with a cargo protein bearing PTS1* results in targeting of the cargo to the peroxisome at the expense of naturally occurring peroxisomal components—a process that was easily visualized in moss cells using fluorescent reporter proteins (Fig. 1b).

AtPEX5 TPR domain = conditions: cited from earlier work
Description: The pentapeptide library sequences were based on YQSKL, which has a nM affinity for the AtPEX5 TPR domain[17] and is widely used as a model PTS1 peptide. This sequence was randomized at the two C-terminal positions to create a library of sequences, YQSXX, where X represents any amino acid, which was efficiently prepared using split-and-pool solid-phase peptide synthesis. A dansyl fluorophore introduced at the N-terminus of the peptide added hydrophobicity to improve retention in LC-MS analysis. Deconvolution of Leu- and Ile-containing peptides was enabled by preparation of four sub-librari ...

[2] = lissamine-labelled peptide, not pursued in FA assay
AtPEX5C D505H = molecular target: T1, AtPEX5C D505H (Arabidopsis thaliana, UniProt Q9FMA3 340-728, D505H); experiment: pull-down; His6-protein (12.5 µM) incubated with the combined dansyl-YQSXX library (500 nM each peptide) in 50 mM Na2HPO4, 300 mM NaCl, 10 mM 2-mercaptoethanol, 15% glycerol, pH 8.0, 4 °C, 1 h; captured on Co-NTA resin, washed, bound peptides eluted with 6 M urea and identified by ESI-LC-MS; semi-quantitative; conditions: both partners purified
T1 construct: Made by site-directed mutagenesis of His6-AtPEX5 (340-728) in pET-28b; also called D505H variant of AtPEX5C; source: E. coli BL21-Gold (DE3), purified (Co-NTA)
T1 sequence (looked up): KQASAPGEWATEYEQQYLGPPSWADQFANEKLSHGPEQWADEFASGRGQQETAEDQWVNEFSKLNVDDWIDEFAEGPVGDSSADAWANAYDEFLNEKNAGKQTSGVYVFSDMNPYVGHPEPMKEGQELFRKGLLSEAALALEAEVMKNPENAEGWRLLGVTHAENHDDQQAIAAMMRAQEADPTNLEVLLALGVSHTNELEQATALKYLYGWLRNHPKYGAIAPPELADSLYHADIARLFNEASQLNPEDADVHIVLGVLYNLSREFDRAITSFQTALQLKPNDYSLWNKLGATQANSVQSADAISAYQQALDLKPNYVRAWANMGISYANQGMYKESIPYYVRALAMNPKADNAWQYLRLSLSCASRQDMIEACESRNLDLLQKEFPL

AtPEX5C N601A = molecular target: T2, AtPEX5C N601A (Arabidopsis thaliana, UniProt Q9FMA3 340-728, N601A); experiment: as above; conditions: both partners purified
T2 construct: Made by site-directed mutagenesis of His6-AtPEX5 (340-728) in pET-28b; also called N601A variant; source: E. coli BL21-Gold (DE3), purified (Co-NTA)
T2 sequence (looked up): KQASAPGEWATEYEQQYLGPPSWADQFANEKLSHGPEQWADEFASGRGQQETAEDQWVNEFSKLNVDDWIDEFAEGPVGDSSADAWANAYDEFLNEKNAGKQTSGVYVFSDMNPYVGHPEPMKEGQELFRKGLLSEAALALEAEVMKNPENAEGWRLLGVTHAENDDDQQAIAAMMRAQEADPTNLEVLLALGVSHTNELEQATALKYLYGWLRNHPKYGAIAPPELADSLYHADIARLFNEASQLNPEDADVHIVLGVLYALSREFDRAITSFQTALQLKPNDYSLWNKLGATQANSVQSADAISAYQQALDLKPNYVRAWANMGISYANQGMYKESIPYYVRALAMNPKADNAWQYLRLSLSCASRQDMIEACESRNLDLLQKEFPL

Molecule: WWRDPYSPMYQSYY [PTS1*, YQSYY including enhancing upstream residues]
affinity for naturally occurring PEX5 receptor [1]: low affinity

Molecule: YQSKL [model PTS1 peptide]
affinity for AtPEX5 TPR domain (AtPEX5 TPR domain): nM affinity

Molecule: lissamine-labelled YQSFY
solubility [2]: poor solubility

binding result (AtPEX5C D505H): binds
binding result (AtPEX5C N601A): binds
B1: dansyl-YQSFY (peptide)
peptide: Dansyl-YQSFY-OH
SMILES: CN(C)c1cccc2c(S(=O)(=O)N[C@@H](Cc3ccc(O)cc3)C(=O)N[C@@H](CCC(N)=O)C(=O)N[C@@H](CO)C(=O)N[C@@H](Cc3ccccc3)C(=O)N[C@@H](Cc3ccc(O)cc3)C(=O)O)cccc12
notes: member of the YQSXX pentapeptide library; Tested within the combined library of 324 peptides, not alone; source: synthetic peptide, member of the split-and-pool dansyl-YQSXX library

— article PMC5587766, “Towards designer organelles by subverting the peroxisomal import pathway” (Nature Communications, 2017)
